{
  "source": "paper PMC8037569",
  "about": "“Neuroprotective Effect of Aurantio-Obtusin, a Putative Vasopressin V1A Receptor Antagonist, on Transient Forebrain Ischemia Mice Model” (International Journal of Molecular Sciences, 2021)",
  "test_system": "C57BL/6 mice",
  "assay": "Transient forebrain ischemia (BCCAO) mice model, overall effect and tolerability",
  "assay_type": "in vivo",
  "protocol": "[…]. The animals were housed five per cage, allowed access to water and food ad libitum; the environment was maintained at a constant temperature (23 ± 1 °C) and humidity (60 ± 10%) under a 12-h light/dark cycle (the lights were on from 07:30 to 19:30 h). Forty mice were divided equally into four groups (sham + vehicle, n = 10; sham + drug, n = 10; bilateral common carotid artery occluded ischemia + vehicle, n = 10; bilateral common carotid artery occluded ischemia + drug, n = 10) for experiment. The treatment and maintenance of the animals were carried out in accordance with the Animal Care and Use Guidelines of Dong-A University, Korea. All in vivo experiments were performed according to the protocols approved by the Institutional Animal Care and Use Committee of Dong-A University (approved protocol numbers: DIACUC-approved-17-20) and were in accordance with the National Institutes of Health guidelines.\nC57BL/6 mice were anesthetized with 2.0% isoflurane and 70% nitrous oxide in oxygen and subjected to transient forebrain ischemia. The transient forebrain ischemia was induced by bilateral common carotid artery occlusion (BCCAO) with aneurysm clips for 20 min, and the circulation was restored by removing the clips. […] The regional cerebral blood flow (rCBF) was monitored using laser Doppler flowmetry (Perimed, PF5010, JarFalla, Sweden). […]",
  "data": [
    {"smiles": "COc1c(O)cc2c(c1O)C(=O)c1c(cc(C)c(O)c1OC)C2=O", "note": "[Aurantio-obtusin, 1,3,7-trihydroxy-2,8-dimethoxy-6-methylanthracene-9,10-dione]", "values": [
      {"measurement": "Toxicity of treatment alone (sham + drug)", "setting": "10 mg/kg, p.o., once daily, compared to sham group", "value": "no toxicity"},
      {"measurement": "Effect in BCCAO model, pilot study", "setting": "1, 5 and 10 mg/kg tested, result for 10 mg/kg", "value": "effective"}
    ]}
  ]
}
